# According to ChEMBL document CHEMBL4266049, “A Steroid-Type Antioxidant Targeting the Keap1/Nrf2/ARE Signaling Pathway from the Soft Coral Dendronephthya gigantea” (J Nat Prod, 2018):
# Activity calls are given as the source filed them. The rule behind the calls is not given here.
# Legend:
# PC-12 [1] = assay: Cytotoxicity against rat PC12 cells assessed as reduction in cell viability at 10 uM after 24 hrs by MTT assay; format: cell-based; settings: pc-12, 24 h
# PC-12 [2] = assay: Cytoprotective activity against H2O2-induced oxidative injury in rat PC12 cells assessed as […] in cell viability at 10 uM pretreated for 24 hrs followed by 350 uM H2O2 challenge measured after 24 hrs by MTT assay; format: functional, cell-based
# PC-12 [3] = assay: Cytoprotective activity against H2O2-induced oxidative injury in rat PC12 cells assessed as increase in colony formation at 1 to 2 uM pretreated for 24 hrs followed by H2O2 challenge by crystal violet staining based assay; format: functional, cell-based
# PC-12 [4] = assay: Cytoprotective activity against H2O2-induced oxidative injury in rat PC12 cells assessed as reduction in intracellular reactive oxygen species formation pretreated for 24 hrs followed by H2O2 challenge measured after 3 hrs by DCFH-DA dye based fluorescence microscopic analysis; format: functional, cell-based
# PC-12 [5] = assay: Cytoprotective activity against H2O2-induced oxidative injury in rat PC12 cells assessed as […] in cell viability at 10 uM pretreated for 24 hrs followed by 500 uM H2O2 challenge measured after 24 hrs by MTT assay; format: functional, cell-based
# PC-12 [6] = assay: Cytoprotective activity against H2O2-induced oxidative injury in rat PC12 cells assessed as cell viability at 10 uM pretreated for 24 hrs followed by 350 uM H2O2 challenge measured after 24 hrs by MTT assay (reference value: 60%); format: functional
# [7] = biological target: T1, KEAP1/NRF2 (Rattus norvegicus) (UniProt O54968+P57790); assay: Inhibition of Keap1/Nrf2 signaling in rat PC12 cells assessed as induction of nuclear translocation at 10 uM after 6 hrs by DAPI staining based fluorescence microscopic analysis; format: cell-based
# PC-12 [8] = assay: Cytoprotective activity against H2O2-induced oxidative injury in rat PC12 cells assessed as decrease in LDH release after 24 hrs; format: functional, cell-based
# [9] = biological target: T1, KEAP1/NRF2 (Rattus norvegicus); assay: Inhibition of Keap1/Nrf2 signaling in rat PC12 cells assessed as induction of ARE by measuring increase in HO-1 expression after 24 hrs by Western blot analysis; format: cell-based
# PC-12 [10] = assay: Cytoprotective activity against H2O2-induced oxidative injury in rat PC12 cells harboring siRNA assessed as increase in colony formation at 2 uM pretreated for 24 hrs followed by H2O2 challenge by crystal violet staining based assay; format: functional, cell-based
# PC-12 [11] = assay: Cytoprotective activity against H2O2-induced oxidative injury in rat PC12 cells harboring Nrf2 siRNA assessed as increase in colony formation at 2 uM pretreated for 24 hrs followed by H2O2 challenge by crystal violet staining based assay; format: functional, cell-based
# PC-12 [12] = assay: Cytoprotective activity against H2O2-induced oxidative injury in rat PC12 cells harboring siRNA assessed as increase in cell viability at 10 uM pretreated for 24 hrs followed by H2O2 challenge measured after 24 hrs by MTT assay; format: functional, cell-based
# PC-12 [13] = assay: Cytoprotective activity against H2O2-induced oxidative injury in rat PC12 cells assessed as inhibition of MDA production pretreated for 24 hrs followed by H2O2 challenge measured after 16 hrs; format: functional, cell-based
# PC-12 [14] = assay: Cytoprotective activity against H2O2-induced oxidative injury in rat PC12 cells harboring Nrf2 siRNA assessed as increase in cell viability at 10 uM pretreated for 24 hrs followed by H2O2 challenge measured after 24 hrs by MTT assay; format: functional, cell-based
# [15] = biological target: T1, KEAP1/NRF2 (Rattus norvegicus); assay: Inhibition of Keap1/Nrf2 signaling in rat PC12 cells assessed as induction of ARE by measuring increase in HO-1 expression at 10 uM after 24 hrs by Western blot analysis; format: cell-based
# PC-12 [16] = assay: Cytoprotective activity against H2O2-induced oxidative injury in rat PC12 cells assessed as inhibition of MDA production at 10 uM pretreated for 24 hrs followed by H2O2 challenge measured after 16 hrs; format: functional, cell-based
# PC-12 [17] = assay: Cytoprotective activity against H2O2-induced oxidative injury in rat PC12 cells assessed as increase in colony formation at 5 uM pretreated for 24 hrs followed by H2O2 challenge by crystal violet staining based assay; format: functional, cell-based
# PC-12 [18] = assay: Cytoprotective activity against H2O2-induced oxidative injury in rat PC12 cells assessed as reduction in intracellular reactive oxygen species formation at 10 uM pretreated for 24 hrs followed by H2O2 challenge measured after 3 hrs by DCFH-DA dye based fluorescence microscopic analysis; format: functional, cell-based
SMILES,Activity (PC-12 [1]),Activity (PC-12 [2]),other results
CC(=O)O[C@H]1C=C2C[C@@H](O)CC[C@]2(CO)[C@H]2CC[C@]3(C)[C@@H]([C@H](C)CCCC(C)C)CC[C@H]3[C@H]12,Non-Toxic,inactive,–
C=C(CC[C@@H](C)[C@H]1CC[C@@H]2[C@]1(C)C[C@H](O)[C@@H]1[C@@]3(C)C[C@H](O)[C@H](O)[C@@H](C)[C@@H]3CC(=O)[C@@]21O)C(C)C,Non-Toxic,inactive,–
C=C(CC[C@@H](C)[C@H]1CC[C@H]2[C@@H]3C(=O)C=C4C[C@@H](O)CC[C@]4(COC(C)=O)[C@H]3CC[C@]12C)C(C)C,Non-Toxic,–,Activity (PC-12 [3]): Active; Activity (PC-12 [4]): Dose-dependent effect; Activity (PC-12 [5]): Active; Activity (PC-12 [6]): 70%; inhibition [7]: Active; Activity (PC-12 [8]): Dose-dependent effect; inhibition [9]: Dose-dependent effect; Activity (PC-12 [10]): Active; Activity (PC-12 [11]): inactive; Activity (PC-12 [12]): Active; inhibition (PC-12 [13]): Dose-dependent effect; Activity (PC-12 [14]): inactive
C=C(CC[C@@H](C)[C@H]1CC[C@H]2[C@@H]3C(=O)[C@H]4O[C@]45C[C@@H](O)CC[C@]5(COC(C)=O)[C@H]3CC[C@]12C)C(C)C,Non-Toxic,inactive,–
CC(=O)O[C@H]1C=C2C[C@@H](O)CC[C@]2(CO)[C@H]2CC[C@]3(C)[C@@H]([C@H](C)/C=C/CC(C)C)CC[C@H]3[C@H]12,Non-Toxic,inactive,–
C=C(CC[C@@H](C)[C@H]1CC[C@H]2[C@@H]3C(=O)[C@H]4O[C@]45C[C@@H](O)CC[C@]5(COC(C)=O)[C@H]3[C@H](OC(C)=O)C[C@]12C)C(C)C,Non-Toxic,inactive,–
C=C(/C=C/[C@@H](C)[C@H]1CC[C@H]2[C@@H]3[C@@H](OC(C)=O)C=C4C[C@@H](O)CC[C@]4(CO)[C@H]3CC[C@]12C)C(C)C,Non-Toxic,inactive,–
C=C(/C=C/[C@@H](C)[C@H]1CC[C@H]2[C@@H]3C(=O)[C@H]4O[C@]45C[C@@H](O)CC[C@]5(COC(C)=O)[C@H]3CC[C@]12C)C(C)C,Non-Toxic,inactive,–
CC(C)(C)c1cc(O)ccc1O,–,–,Activity (PC-12 [5]): Active; inhibition [15]: Active; inhibition (PC-12 [16]): Active; Activity (PC-12 [17]): Active; Activity (PC-12 [18]): Active
C=C(CC[C@@H](C)[C@H]1CC[C@H]2[C@@H]3[C@@H](O)C=C4C[C@@H](O)CC[C@]4(C)[C@H]3CC[C@]12C)C(C)C,Non-Toxic,inactive,–
C=C(CC[C@@H](C)[C@H]1CC[C@H]2[C@@H]3CC=C4C[C@@H](O)CC[C@]4(CO)[C@H]3CC[C@]12C)C(C)C,Non-Toxic,inactive,–
C=C(CC[C@@H](C)[C@H]1CC[C@H]2[C@@H]3C(=O)[C@H]4O[C@]45C[C@@H](O)CC[C@]5(CO)[C@H]3CC[C@]12C)C(C)C,Non-Toxic,inactive,–
C=C(CC[C@@H](C)[C@H]1CC[C@H]2[C@@H]3[C@@H](OC(C)=O)C=C4C[C@@H](O)CC[C@]4(CO)[C@H]3CC[C@]12C)C(C)C,Non-Toxic,inactive,–
CC(C)CCC[C@@H](C)[C@H]1CC[C@H]2[C@@H]3C(=O)C=C4C[C@@H](O)CC[C@]4(C)[C@H]3CC[C@]12C,–,Active,–
CC(C)CCC[C@@H](C)[C@H]1CC[C@H]2[C@@H]3[C@H](O)CC4=CC(=O)CC[C@]4(C)[C@H]3CC[C@]12C,–,Active,–
C=C(/C=C/[C@@H](C)[C@H]1CC[C@@H]2[C@]1(C)C[C@H](O)[C@@H]1[C@@]3(C)C[C@H](O)[C@H](O)[C@@H](C)[C@@H]3CC(=O)[C@@]21O)C(C)C,Non-Toxic,inactive,–
C=C(/C=C/[C@@H](C)[C@H]1CC[C@@H]2[C@]1(C)C[C@H](O)[C@@H]1[C@@]3(C)C[C@H](O)[C@H](OC(C)=O)[C@@H](C)[C@@H]3CC(=O)[C@@]21O)C(C)C,Non-Toxic,inactive,–
C=C(CC[C@@H](C)[C@H]1CC[C@H]2[C@@H]3[C@H](O)C=C4C[C@@H](O)CC[C@]4(COC(C)=O)[C@H]3CC[C@]12C)C(C)C,Non-Toxic,–,Activity (PC-12 [5]): inactive; Activity (PC-12 [6]): 70%
